Like-named read-outs stand apart in the source and are kept apart here.
How the values were obtained:
JAK1 = target: T1, JAK1 (Homo sapiens, UniProt P23458); assay: Assay 1: LanthaScreen biochemical JAK kinase assay, JAK1; conditions: converted from pIC50 by Cheng-Prusoff; ATP at Km 25 μM; read-out: JAK 1 pKi (converted)
T1 construct: GST; purchased Life Technologies
Experimental: (§1) A panel of four LanthaScreen JAK biochemical assays (JAK1, 2, 3 and Tyk2) were carried in a common kinase reaction buffer (50 mM HEPES, pH 7.5, 0.01% Brij-35, 10 mM MgCl2, and 1 mM EGTA). Recombinant GST-tagged JAK enzymes and a GFP-tagged STAT1 peptide substrate were obtained from Life Technologies.
(§2) The serially diluted compound was pre-incubated with each of the four JAK enzymes and the substrate in white 384-well microplates (Corning) at ambient temperature for lh. ATP was subsequently added to initiate the kinase reactions in 10 μL total volume, with 1% DMSO. […] The plates were allowed to incubate at ambient temperature for lh before being read on the EnVision reader (Perkin Elmer). Emission ratio signals (520 nm/495 nm) were recorded and utilized to calculate the percent inhibition values based on DMSO and background controls.
(§3) For dose-response analysis, percent inhibition data were plotted vs. compound concentrations, and IC50 values were determined from a 4-parameter robust fit model with the Prism software (GraphPad Software). Results were expressed as pIC50 (negative logarithm of IC50) and subsequently converted to pK1 (negative logarithm of dissociation constant, Ki) using the Cheng-Prusoff equation.

Tyk2 = target: T2, Tyk2 (Homo sapiens, UniProt P29597); assay: Assay 1: LanthaScreen biochemical JAK kinase assay, Tyk2; conditions: converted from pIC50 by Cheng-Prusoff; ATP at Km 10 μM; read-out: Tyk2 pKi (converted)
T2 construct: GST; purchased Life Technologies
T2 sequence (P29597 whole entry): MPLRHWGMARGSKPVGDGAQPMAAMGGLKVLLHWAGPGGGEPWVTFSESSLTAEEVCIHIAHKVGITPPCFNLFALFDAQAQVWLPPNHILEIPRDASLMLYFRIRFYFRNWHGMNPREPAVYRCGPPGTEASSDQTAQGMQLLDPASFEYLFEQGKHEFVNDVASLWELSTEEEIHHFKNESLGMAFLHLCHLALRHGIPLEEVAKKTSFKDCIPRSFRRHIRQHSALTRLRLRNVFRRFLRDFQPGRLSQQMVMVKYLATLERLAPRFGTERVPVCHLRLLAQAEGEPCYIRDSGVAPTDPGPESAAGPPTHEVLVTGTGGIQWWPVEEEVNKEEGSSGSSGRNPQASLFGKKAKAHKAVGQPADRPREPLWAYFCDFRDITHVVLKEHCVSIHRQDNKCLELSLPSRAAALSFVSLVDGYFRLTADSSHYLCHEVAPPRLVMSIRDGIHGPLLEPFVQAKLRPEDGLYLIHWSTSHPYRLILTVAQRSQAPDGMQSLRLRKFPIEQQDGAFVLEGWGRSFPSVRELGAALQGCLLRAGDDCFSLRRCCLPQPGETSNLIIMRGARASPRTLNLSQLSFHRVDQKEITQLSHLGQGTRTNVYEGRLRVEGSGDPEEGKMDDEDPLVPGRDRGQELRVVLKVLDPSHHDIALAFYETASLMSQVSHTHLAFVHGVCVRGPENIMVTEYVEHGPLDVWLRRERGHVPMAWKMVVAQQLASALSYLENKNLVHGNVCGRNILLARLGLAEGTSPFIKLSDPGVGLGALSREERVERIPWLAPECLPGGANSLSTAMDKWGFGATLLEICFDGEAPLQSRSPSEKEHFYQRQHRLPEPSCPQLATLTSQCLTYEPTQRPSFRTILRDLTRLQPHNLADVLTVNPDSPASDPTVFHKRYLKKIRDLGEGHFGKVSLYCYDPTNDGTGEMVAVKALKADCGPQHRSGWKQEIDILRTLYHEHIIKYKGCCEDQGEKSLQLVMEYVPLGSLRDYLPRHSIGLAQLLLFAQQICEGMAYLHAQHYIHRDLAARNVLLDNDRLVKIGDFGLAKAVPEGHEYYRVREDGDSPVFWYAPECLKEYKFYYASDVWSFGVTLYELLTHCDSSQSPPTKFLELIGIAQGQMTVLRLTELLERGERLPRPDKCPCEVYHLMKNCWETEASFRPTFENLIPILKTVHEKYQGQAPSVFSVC
Experimental: as §1, §2, §3

[1] = test system: IL-6 stimulated pSTAT3 in CD3+ T cells; assay: Assay 6: Inhibition of IL-6 stimulated pSTAT3 in CD3+ T cells; type: cell-based; conditions: T-cell; CD3+ T cells in human PBMCs, flow cytometry; read-out: pIC50, inhibition of IL-6 stimulated pSTAT3 (converted)
Excerpt: A protocol analogous to that of Assay 5 was used to determine the potency of the test compound for inhibition of interleuken-6 (IL-6) stimulated STAT3 phosphorylation.
An Alexa Fluor 647 conjugated anti-pSTAT3 antibody (pY705, Clone 4/P, BD Biosciences) was used to detect STAT3 phosphorylation.

[2] = test system: IL-13 induced pSTAT6 in lung tissue; assay: Assay 9: Murine model of IL-13 induced pSTAT6 induction in lung tissue; type: in vivo, balb/c mice; conditions: mouse, 0.5 mg/mL 50 μL oral aspiration; after IL-13 challenge (so in the source)
Experimental: 11-13 is an important cytokine underlying the pathophysiology of asthma (Kudlacz et al. Eur. J. Pharmacol, 2008, 582,154-161). IL-13 binds to cell surface receptors activating members of the Janus family of kinases (JAK) which then phosphorylate STAT6 and subsequently activates further transcription pathways. In the described model, a dose of IL-13 was delivered locally into the lungs of mice to induce the phosphorylation of STAT6 (pSTAT6) which is then measured as the endpoint.
Adult balb/c mice from Harlan were used in the assay. On the day of study, animals were lightly anesthetized with isoflurane and administered either vehicle or test compound (0.5 mg/mL, 50 μL total volume over several breaths) via oral aspiration. Animals were placed in lateral recumbency post dose and monitored for full recovery from anesthesia before being returned to their home cage. Four hours later, animals were once again briefly anesthetized and challenged with either vehicle or IL-13 (0.03 μg total dose delivered, 50 μL total volume) via oral aspiration before being monitored for recovery from anesthesia and returned to their home cage. […] using an anti-pSTAT6 ELISA (rabbit mAb capture/coating antibody; mouse mAb detection/report antibody: anti-pSTAT6-pY641; secondary antibody: anti-mouse IgG-HRP) and analyzed for total drug concentration as described above in Assay 12. […]

[3] = test system: IL-5 mediated survival of human eosinophils; assay: Assay 16: IL-5 mediated eosinophil survival assay; type: cell-based; conditions: 72 h, read-out: pIC50, IL-5 mediated eosinophil survival (cell viability) (converted)
Experimental: The potency of the test compound for IL-5 mediated eosinophil survival was measured in human eosinophils isolated from human whole blood (AllCells). Because IL-5 signals through JAK, this assay provides a measure of JAK cellular potency. Human eosinophils were isolated from fresh human whole blood (AllCells) of healthy donors. Blood was mixed with 4.5% Dextran (Sigma-Aldrich) in a 0.9% sodium chloride solution (Sigma-Aldrich). Red blood cells were left to sediment for 35 minutes. The leukocyte rich upper layer was removed and layered over Ficoll-Paque (GE Healthcare) and centrifuged at 600 g for 30 minutes. The plasma and mononuclear cell layers were removed before the granulocyte layer was lysed with water to remove any contaminating red blood cells. […] Purity was analyzed using a LSRII flow cytometer (BD Biosciences). […]
After cytokine stimulation, cells were centrifuged at 300 g for 5 min and washed twice with cold DPBS (Life Technologies). To access viability and apoptosis, cells were incubated with Propidium Iodide (Thermo Fisher Scientific) and APC Annexin V (BD Biosciences) and analyzed using a LSRII flow cytometer (BD Biosciences). IC50 values were determined from analysis of the viability curves of percent cell viability vs compound concentration. Data are expressed as pIC50 (negative decadic logarithm IC50) values.

T1 sequence (P23458 whole entry): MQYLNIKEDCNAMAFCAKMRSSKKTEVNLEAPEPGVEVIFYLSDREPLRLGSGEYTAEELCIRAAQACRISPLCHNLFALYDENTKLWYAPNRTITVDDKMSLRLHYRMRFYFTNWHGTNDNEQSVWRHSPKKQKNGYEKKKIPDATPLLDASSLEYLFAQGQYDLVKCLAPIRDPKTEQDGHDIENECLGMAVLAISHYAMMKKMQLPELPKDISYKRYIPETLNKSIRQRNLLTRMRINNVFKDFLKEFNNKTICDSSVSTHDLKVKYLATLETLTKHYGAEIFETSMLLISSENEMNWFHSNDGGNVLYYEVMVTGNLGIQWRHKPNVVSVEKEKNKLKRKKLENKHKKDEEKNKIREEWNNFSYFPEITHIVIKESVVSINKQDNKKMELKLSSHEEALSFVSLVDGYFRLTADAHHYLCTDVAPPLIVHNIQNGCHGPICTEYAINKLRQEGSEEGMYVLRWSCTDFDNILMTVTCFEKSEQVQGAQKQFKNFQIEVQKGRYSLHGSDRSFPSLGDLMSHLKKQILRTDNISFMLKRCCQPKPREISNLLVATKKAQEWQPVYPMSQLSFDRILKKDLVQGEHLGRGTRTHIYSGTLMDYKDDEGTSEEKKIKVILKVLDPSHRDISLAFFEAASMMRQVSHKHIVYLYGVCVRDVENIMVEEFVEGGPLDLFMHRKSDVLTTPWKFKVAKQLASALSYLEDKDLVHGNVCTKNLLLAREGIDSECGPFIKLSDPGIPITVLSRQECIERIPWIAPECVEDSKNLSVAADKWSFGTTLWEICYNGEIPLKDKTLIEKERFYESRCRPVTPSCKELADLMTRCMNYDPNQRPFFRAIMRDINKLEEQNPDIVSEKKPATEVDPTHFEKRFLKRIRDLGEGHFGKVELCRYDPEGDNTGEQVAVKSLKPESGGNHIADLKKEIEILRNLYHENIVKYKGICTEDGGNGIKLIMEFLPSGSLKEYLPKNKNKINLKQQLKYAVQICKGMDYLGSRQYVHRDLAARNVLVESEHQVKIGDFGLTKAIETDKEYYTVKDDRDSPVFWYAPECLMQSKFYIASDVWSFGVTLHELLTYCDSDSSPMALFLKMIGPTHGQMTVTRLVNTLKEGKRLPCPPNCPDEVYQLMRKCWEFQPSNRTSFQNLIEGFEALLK

## CCc1cc(O)c(F)cc1-c1ccc2c(-c3nc4c([nH]3)CCN(C3CCN(C)CC3)C4)n[nH]c2c1 [Compound 1, 5-ethyl-2-fluoro-4-(3-(5-(1-methylpiperidin-4-yl)-4,5,6,7-tetrahydro-1H-imidazo[4,5-c]pyridin-2-yl)-1H-indazol-6-yl)phenol]
JAK1
  Ki: 0.0631 nM
Tyk2
  Ki: 0.158 nM
[1]
  IC50: 39.8 nM
[2]
  inhibition of STAT6 phosphorylation in lung: about 60%
[3]; in the presence of 10 pg/ml IL-5, 72 hours
  IC50: 12.6 nM
[3]; in the presence of 1 ng/ml IL-5, 72 hours
  IC50: 316 nM

— patent publication US10251874B2, “Crystalline forms of a JAK inhibitor compound” (THERAVANCE BIOPHARMA R&D IP, LLC, priority 2017, dated 2019)
